Results reported in patent US8415469B2, “Compounds and methods for kinase modulation, and indications therefor” (Plexxikon Inc., priority 2005, dated 2013).

What was measured:
Type in all cases: biochemical
[1] = molecular target: Plk1 (Homo sapiens, UniProt P53350); test: AlphaScreen kinase assay, Plk1; details: read-out: IC50, activity toward kinase Plk1
Method in brief: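 AlphaScreen read-out: acceptor-bead emission falls when kinase is inhibited. Biotin-peptide substrate captured on streptavidin donor beads, phospho-specific antibody on acceptor beads. 8 concentrations, 1:3 dilution series, from 20 mM DMSO stocks.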

[2] = molecular target: T1, Flt3 (Homo sapiens, UniProt P36888); test: Z'-Lyte FRET kinase assay (Invitrogen), Flt3; details: read-out: IC50, activity toward kinase Flt3
T1 construct: purchased Invitrogen (assay run by Invitrogen)
T1 sequence (P36888 27-993): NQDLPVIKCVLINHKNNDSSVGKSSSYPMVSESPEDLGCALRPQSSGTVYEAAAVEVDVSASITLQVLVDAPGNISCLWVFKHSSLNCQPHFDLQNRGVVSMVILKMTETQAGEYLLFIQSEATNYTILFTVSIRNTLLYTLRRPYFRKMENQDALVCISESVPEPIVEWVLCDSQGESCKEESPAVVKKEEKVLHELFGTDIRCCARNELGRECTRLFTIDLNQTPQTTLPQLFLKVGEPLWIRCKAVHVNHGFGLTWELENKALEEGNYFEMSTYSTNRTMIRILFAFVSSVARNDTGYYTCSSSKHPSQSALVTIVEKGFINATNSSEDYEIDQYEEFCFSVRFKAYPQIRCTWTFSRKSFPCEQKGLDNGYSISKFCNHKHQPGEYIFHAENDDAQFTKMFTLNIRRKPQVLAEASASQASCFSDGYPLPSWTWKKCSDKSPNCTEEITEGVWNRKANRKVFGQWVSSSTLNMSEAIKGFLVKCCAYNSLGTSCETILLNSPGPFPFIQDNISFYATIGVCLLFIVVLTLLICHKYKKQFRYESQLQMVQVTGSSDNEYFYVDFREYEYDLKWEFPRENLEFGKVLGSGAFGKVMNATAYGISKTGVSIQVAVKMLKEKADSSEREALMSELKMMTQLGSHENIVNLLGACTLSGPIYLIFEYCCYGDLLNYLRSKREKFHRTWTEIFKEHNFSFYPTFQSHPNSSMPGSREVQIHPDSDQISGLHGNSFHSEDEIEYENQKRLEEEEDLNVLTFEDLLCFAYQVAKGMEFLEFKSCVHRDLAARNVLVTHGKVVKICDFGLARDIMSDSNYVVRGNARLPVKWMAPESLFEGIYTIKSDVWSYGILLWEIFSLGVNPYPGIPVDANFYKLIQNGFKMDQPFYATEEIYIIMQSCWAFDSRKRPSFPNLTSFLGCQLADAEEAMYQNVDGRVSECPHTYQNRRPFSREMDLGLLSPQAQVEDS
From the text: The effect of potential modulators of kinase activity can be measured in a variety of different assays known in the art. For example, direct radiometric, indirect FRET or AlphaScreen assays may be used to assess the level of phosphorylation of a substrate in the presence of test compounds in order to determine the inhibitory affect of the compound on the kinase. Invitrogen (Carlsbad, Calif.) uses a FRET based assay for Btk, EGFR, EphB2, Flt3, lrak4, Kdr, MAP2K1, MAPKAPK2, PDGFRB, PKC theta, Stk6 and Yes. For these assays, compounds of the invention were screened by Invitrogen using Z′-Lyte™ kinase assay.
Briefly, the Invitrogen kinase assay involves use of a specific peptide substrate optimized for each kinase, containing a fluorophore at each end that make up the FRET pair. The peptide sensitivity to proteolytic cleavage depends on phosphorylation of the peptide. Non-phosphorylated peptide is cleaved by a protease while peptide phosphorylated by the kinase is not cleaved. Cleavage of the peptide disrupts the FRET between the donor (coumarin) and acceptor (fluorescein) fluorophores, resulting in an increase in the ratio of donor emission to acceptor emission. The emission ratio of coumarin to fluorescein is used to assess the reaction progress. The extent of phosphorylation is determined from the emission ratio, which is low when the kinase is active (phosphorylated peptide is not cleaved, FRET pair connected) or higher for inhibited kinase (non-phosphorylated peptide is cleaved, FRET pair separated). Thus, the assay involves a kinase reaction in the presence of varying concentrations of a given compound, a development reaction with site specific protease, and detection of the fluorescent emission ratio of coumarin and fluorscein. […] Reaction conditions for each kinase are determined to provide optimal reaction times, incubation temperature, kinase and ATP concentrations. Test samples are made up in 1× kinase buffer (50 mM HEPES pH 7.5, 50 mM MgCl2, 5 mM EGTA, 0.05% BRIJ-35) and compound at desired concentration prepared in DMSO such that the final DMSO is 1%. […] Typically, assay plates are prepared to 10 μl final volume per sample, adding 2.5 μl of compound at 4× the desired concentration in 4% DMSO (serial dilution of compound provides concentration curve), 5 μl of the desired kinase mixed with Z′-LYTE™ peptide substrate (2× in 2× kinase buffer, final peptide at 2 μM), and 2.5 μl of 4×ATP solution. All kinase except for MAP2K1 were at 10 μM ATP in the kinase reaction, while MAP2K1 was at 100 μM. Samples are mixed and the kinase reaction is incubated 1 hour at room temperature, after which 5 μl of development solution is added and mixed. After incubation for another 1 hour at room temperature, 5 μl of stop reagent is added to each sample and mixed. The fluorescence signals are measured to determine the emission ratio.

[3] = molecular target: ALK (Homo sapiens, UniProt Q9UM73); test: AlphaScreen kinase assay, ALK; details: read-out: IC50, activity toward kinase ALK
ALK, sequence (Q9UM73 19-1620): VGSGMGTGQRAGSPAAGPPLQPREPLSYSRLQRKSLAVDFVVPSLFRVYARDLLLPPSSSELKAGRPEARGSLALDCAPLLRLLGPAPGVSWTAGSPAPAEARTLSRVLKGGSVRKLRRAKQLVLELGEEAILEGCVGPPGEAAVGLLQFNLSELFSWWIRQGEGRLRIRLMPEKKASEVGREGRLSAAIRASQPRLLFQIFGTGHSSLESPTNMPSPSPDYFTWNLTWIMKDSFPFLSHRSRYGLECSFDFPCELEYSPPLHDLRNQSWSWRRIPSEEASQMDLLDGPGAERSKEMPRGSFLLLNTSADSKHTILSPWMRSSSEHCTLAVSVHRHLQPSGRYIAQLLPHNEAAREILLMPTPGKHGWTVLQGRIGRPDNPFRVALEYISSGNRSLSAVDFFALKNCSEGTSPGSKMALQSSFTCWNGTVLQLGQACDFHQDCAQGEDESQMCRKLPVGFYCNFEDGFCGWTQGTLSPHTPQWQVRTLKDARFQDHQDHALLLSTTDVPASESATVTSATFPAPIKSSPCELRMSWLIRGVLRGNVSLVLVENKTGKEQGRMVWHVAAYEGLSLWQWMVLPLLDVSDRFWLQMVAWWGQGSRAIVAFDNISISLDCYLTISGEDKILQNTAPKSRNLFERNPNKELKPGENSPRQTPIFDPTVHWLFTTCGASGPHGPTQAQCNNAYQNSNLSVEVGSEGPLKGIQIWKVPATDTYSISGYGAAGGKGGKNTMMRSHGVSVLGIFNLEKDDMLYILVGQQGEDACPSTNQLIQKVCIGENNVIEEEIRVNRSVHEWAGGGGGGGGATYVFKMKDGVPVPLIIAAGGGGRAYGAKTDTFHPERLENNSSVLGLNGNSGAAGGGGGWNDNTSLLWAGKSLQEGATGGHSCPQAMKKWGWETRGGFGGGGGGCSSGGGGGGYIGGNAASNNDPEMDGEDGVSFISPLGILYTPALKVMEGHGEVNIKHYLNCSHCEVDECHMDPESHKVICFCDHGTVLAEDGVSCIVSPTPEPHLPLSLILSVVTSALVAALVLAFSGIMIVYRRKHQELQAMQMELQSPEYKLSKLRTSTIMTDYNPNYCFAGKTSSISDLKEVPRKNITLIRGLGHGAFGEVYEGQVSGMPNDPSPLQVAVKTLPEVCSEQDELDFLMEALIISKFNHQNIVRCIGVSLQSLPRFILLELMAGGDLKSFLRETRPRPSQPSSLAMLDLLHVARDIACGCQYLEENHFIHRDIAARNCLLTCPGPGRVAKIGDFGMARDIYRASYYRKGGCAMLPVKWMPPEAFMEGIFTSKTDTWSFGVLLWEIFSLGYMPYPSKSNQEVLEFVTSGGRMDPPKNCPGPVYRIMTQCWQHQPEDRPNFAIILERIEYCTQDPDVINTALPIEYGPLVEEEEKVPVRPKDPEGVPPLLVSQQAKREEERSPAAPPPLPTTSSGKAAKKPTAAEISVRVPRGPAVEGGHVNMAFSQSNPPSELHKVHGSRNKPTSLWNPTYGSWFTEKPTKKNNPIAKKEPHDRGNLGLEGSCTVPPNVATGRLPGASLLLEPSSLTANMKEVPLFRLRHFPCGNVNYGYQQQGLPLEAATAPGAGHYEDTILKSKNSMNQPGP
From the text: (§1) AlphaScreen assay was used to screen additional kinases. The assay is similarly dependent on the phosphorylation of a peptide substrate. In this assay, an antibody that recognizes phosphorylated substrate is bound to an acceptor bead. The peptide substrate is attached to biotin, which binds to a donor head that contains streptavidin. Thus phosphorylated substrate is bound by antibody and streptavidin, bringing the donor and acceptor heads into close proximity when kinase is not inhibited. The donor produces singlet oxygen which results in emission from the acceptor when they are in close proximity. Conversely, when kinase is inhibited, the donor and acceptor beads are not associated and the emission from the acceptor is reduced.
(§2) AlphaScreen assays were done using compounds dissolved in DMSO to a concentration of 20 mM. The compounds were diluted accordingly to the desired final concentrations in each sample well, using 1:3 serial dilution for a total of 8 concentration points.

[4] = molecular target: T2, MAPKAPK2 (Homo sapiens, UniProt P49137); test: Z'-Lyte FRET kinase assay (Invitrogen), MAPKAPK2; details: read-out: IC50, activity toward kinase MAPKAPK2
T2 construct: purchased Invitrogen (assay run by Invitrogen)
T2 sequence (P49137 whole entry): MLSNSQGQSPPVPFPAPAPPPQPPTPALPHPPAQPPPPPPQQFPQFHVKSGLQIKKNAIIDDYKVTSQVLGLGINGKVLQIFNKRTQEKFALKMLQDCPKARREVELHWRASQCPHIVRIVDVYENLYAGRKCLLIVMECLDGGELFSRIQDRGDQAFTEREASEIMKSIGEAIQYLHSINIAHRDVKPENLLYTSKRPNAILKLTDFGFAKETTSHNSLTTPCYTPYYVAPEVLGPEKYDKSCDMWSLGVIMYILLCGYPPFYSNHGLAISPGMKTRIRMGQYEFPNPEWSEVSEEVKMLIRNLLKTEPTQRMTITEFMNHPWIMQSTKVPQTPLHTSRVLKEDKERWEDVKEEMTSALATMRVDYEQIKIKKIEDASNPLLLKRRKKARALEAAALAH
Method in brief: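 Under a compound concentration curve, the kinase acted on a dual-labelled peptide at 2 μM with ATP at 10 μM for one hour at ambient temperature (buffer pH 7.5, 1% DMSO). Phosphorylation extent came from the emission ratio after protease development.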

[5] = molecular target: T3, Erk2 (Homo sapiens, UniProt P28482); test: AlphaScreen kinase assay, Erk2; details: read-out: IC50, activity toward kinase Erk2
T3 construct: P4227.pET15S ERK2/MEK1DD; His6 with thrombin site (N); made in house
T3 sequence (P28482 with tags, fused parts or gaps): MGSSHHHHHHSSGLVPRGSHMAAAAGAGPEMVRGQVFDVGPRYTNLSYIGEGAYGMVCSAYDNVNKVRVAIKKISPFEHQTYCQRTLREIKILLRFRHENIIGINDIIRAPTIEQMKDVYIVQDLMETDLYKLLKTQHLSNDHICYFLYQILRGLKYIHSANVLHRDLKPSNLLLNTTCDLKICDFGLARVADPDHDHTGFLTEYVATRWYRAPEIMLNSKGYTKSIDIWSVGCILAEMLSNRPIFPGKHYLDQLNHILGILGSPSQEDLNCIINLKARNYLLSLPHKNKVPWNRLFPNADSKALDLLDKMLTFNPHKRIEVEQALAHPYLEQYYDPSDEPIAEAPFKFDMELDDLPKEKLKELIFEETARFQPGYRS
From the text: as §1, §2

Plk1, sequence (P53350 whole entry): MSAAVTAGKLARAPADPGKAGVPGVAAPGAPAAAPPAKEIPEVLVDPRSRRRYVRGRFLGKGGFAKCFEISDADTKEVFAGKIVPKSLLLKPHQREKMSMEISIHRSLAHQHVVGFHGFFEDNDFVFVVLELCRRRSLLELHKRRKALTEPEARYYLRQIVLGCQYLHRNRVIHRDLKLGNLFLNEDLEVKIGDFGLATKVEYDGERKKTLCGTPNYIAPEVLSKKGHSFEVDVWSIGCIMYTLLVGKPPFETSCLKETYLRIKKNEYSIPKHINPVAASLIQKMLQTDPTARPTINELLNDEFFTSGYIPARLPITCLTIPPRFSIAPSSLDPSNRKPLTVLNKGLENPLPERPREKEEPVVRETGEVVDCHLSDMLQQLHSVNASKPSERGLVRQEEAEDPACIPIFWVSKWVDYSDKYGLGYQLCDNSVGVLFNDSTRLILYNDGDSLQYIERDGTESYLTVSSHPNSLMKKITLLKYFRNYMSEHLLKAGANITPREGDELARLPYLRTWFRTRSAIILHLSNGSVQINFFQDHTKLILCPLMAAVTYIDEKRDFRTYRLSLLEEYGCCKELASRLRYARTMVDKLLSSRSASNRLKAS

In the case of Cc1ccccc1C(=O)c1c[nH]c2nccc(-c3cccc(N)c3)c12 [Compound P-0044], the IC50 [1] is reported as at most 10 µM.

Nc1cccc(-c2ccnc3[nH]cc(C(=O)c4ccccc4F)c23)c1 [Compound P-0022] showed an IC50 [1] of at most 10 µM.

With CCCC(=O)Nc1ccc(F)c(Cc2c[nH]c3ncc(-c4cccnc4)cc23)c1F [Compound P-1280] the IC50 [2] was at most 10 µM and the IC50 [3] was at most 10 µM.

CCCS(=O)(=O)Nc1ccc(F)c(C(=O)c2c[nH]c3ncc(-c4ccccc4)cc23)c1F [Compound P-0636, Propane-1-sulfonic acid [2,4-difluoro-3-(5-phenyl-1H-pyrrolo[2,3-b]pyridine-3-carbonyl)-phenyl]-amide] gave an IC50 [2] of at most 10 µM.

Work on Cc1ccc(S(=O)(=O)NCc2c[nH]c3ncccc23)cc1 [Compound P-0058] yielded an IC50 [4] of at most 10 µM and an IC50 [5] of at most 10 µM.

Work on O=C(c1cccc(O)c1F)c1c[nH]c2ncc(Br)cc12 [Compound P-0067, (5-bromo-1H-pyrrolo[2,3-b]pyridin-3-yl)-(2-fluoro-3-hydroxy-phenyl)-methanone] yielded an IC50 [1] of at most 10 µM.

CCCS(=O)(=O)Nc1ccc(F)c(C(=O)c2c[nH]c3ncccc23)c1F [Compound P-0007, Propane-1-sulfonic acid [2,4-difluoro-3-(1H-pyrrolo[2,3-b]pyridine-3-carbonyl)-phenyl]-amide] gave an IC50 [4] of at most 10 µM.

In the case of Nc1cccc(-c2ccnc3[nH]cc(C(=O)c4cc(F)ccc4F)c23)c1 [Compound P-0046], the IC50 [1] is reported as at most 10 µM.

Work on Fc1cc(F)cc(-c2ccnc3[nH]cc(Sc4ccccn4)c23)c1 [Compound P-0106] yielded an IC50 [4] of at most 10 µM.

For COc1cc(OC)cc(C(=O)c2c[nH]c3ncc(-c4cccc(NS(C)(=O)=O)c4)cc23)c1 [Compound P-1426, N-{3-[3-(3,5-Dimethoxy-benzoyl)-1H-pyrrolo[2,3-b]pyridin-5-yl]-phenyl}-methanesulfonamide], the IC50 [2] was at most 10 µM and the IC50 [3] was at most 10 µM.

CCCS(=O)(=O)Nc1ccc(F)c(C(=O)c2c[nH]c3ncc(-c4cccnc4)cc23)c1F [Compound P-0088, Propane-1-sulfonic acid [2,4-difluoro-3-(5-pyridin-3-yl-1H-pyrrolo[2,3-b]pyridine-3-carbonyl)-phenyl]-amide] was tested, and the IC50 [2] was at most 10 µM.

COc1cccc(C(=O)c2c[nH]c3ncc(-c4cccc(NC(C)=O)c4)cc23)c1F [Compound P-1336, N-{3-[3-(2-Fluoro-3-methoxy-benzoyl)-1H-pyrrolo[2,3-b]pyridin-5-yl]-phenyl}-acetamide] showed an IC50 [2] of at most 10 µM, an IC50 [5] of at most 10 µM and an IC50 [3] of at most 10 µM.

Compound OCCOc1ccc(F)c(Cc2c[nH]c3ncc(-c4cccnc4)cc23)c1F [Compound P-1394, 2-[2,4-Difluoro-3-(5-pyridin-3-yl-1H-pyrrolo[2,3-b]pyridin-3-ylmethyl)-phenoxy]-ethanol] has an IC50 [2] of at most 10 µM and an IC50 [3] of at most 10 µM.

With Cn1cc(C(F)(F)F)c(-c2ccc(S(=O)(=O)NCc3c[nH]c4ncccc34)s2)n1 [Compound P-0041] the IC50 [4] was at most 10 µM and the IC50 [5] was at most 10 µM.

For O=C(Nc1ccc(Cc2c[nH]c3ncccc23)cc1)Nc1cccc(C(F)(F)F)c1 [Compound P-0262, 1-[4-(1H-Pyrrolo[2,3-b]pyridin-3-ylmethyl)-phenyl]-3-(3-trifluoromethyl-phenyl)-urea], the IC50 [2] was at most 10 µM.

CCCS(=O)(=O)Nc1ccc(F)c(C(=O)c2c[nH]c3ncc(OC)cc23)c1F [Compound P-0806, Propane-1-sulfonic acid [2,4-difluoro-3-(5-methoxy-1H-pyrrolo[2,3-b]pyridine-3-carbonyl)-phenyl]-amide] showed an IC50 [2] of at most 10 µM and an IC50 [3] of at most 10 µM.

In the case of CCCCNC(=O)Nc1ccc(F)c(C(=O)c2c[nH]c3ncc(-c4cccnc4)cc23)c1F [Compound P-1318, 1-Butyl-3-[2,4-difluoro-3-(5-pyridin-3-yl-1H-pyrrolo[2,3-b]pyridine-3-carbonyl)-phenyl]-urea], the IC50 [2] is reported as at most 10 µM.
